Values of other authors in PubChem BioAssay AID1259409 (Chemical Carcinogenesis Research Information System (CCRIS), 2018).

Tested on: rodent chemically induced tumor inhibition, incidence and multiplicity
Experiment: CCRIS tumor inhibitor studies

## Cc1cc(C(C)(C)C)c(O)c(C(C)(C)C)c1
Carcinogen: 2-ACETYLAMINOFLUORENE, 53-96-3, Dose [Inhibitor]: 0, 3000 PPM IN DIET CONCURRENTLY WITH CARCINOGEN FOR STUDY DURATION (STUDY DURATION: 76 WK), Route [Inhibitor]: ORAL, Species: RAT, Strain/Sex: F344/MALE, Target Tissue: Type of Lesion: LIVER: HEPATOCELLULAR TUMOR, Dose [Carcinogen]: 50 PPM IN DIET FOR 76 WK
  tumour outcome (control, treated, inhibition, significance): 20/20 (100%), 18/18 (100%), 0%, not calculated
Carcinogen: 2-ACETYLAMINOFLUORENE, 53-96-3, Dose [Inhibitor]: 0, 6000 PPM IN DIET CONCURRENTLY WITH CARCINOGEN FOR STUDY DURATION (STUDY DURATION: 76 WK), Route [Inhibitor]: ORAL, Species: RAT, Strain/Sex: F344/MALE, Target Tissue: Type of Lesion: LIVER: HEPATOCELLULAR CARCINOMA, Dose [Carcinogen]: 50 PPM IN DIET FOR 76 WK
  outcome: 4.8, 0.7, 85%, p<0.05
Carcinogen: 2-ACETYLAMINOFLUORENE, 53-96-3, Dose [Inhibitor]: 0, 6000 PPM IN DIET CONCURRENTLY WITH CARCINOGEN FOR STUDY DURATION (STUDY DURATION: 76 WK), Route [Inhibitor]: ORAL, Species: RAT, Strain/Sex: F344/MALE, Target Tissue: Type of Lesion: LIVER: HEPATOCELLULAR TUMOR, Dose [Carcinogen]: 50 PPM IN DIET FOR 76 WK
  tumour outcome (control, treated, inhibition, significance): 20/20 (100%), 19/19 (100%), 0%, not calculated
Carcinogen: 7,12-DIMETHYLBENZ(A)ANTHRACENE, 57-97-6, Dose [Inhibitor]: 0.3% IN DIET FROM WEANING ONWARD (STUDY DURATION: 6 MO AFTER CARCINOGEN ADMINISTRATION), Route [Inhibitor]: ORAL, Species: RAT, Strain/Sex: SPRAGUE-DAWLEY/FEMALE, Target Tissue: Type of Lesion: MAMMARY GLAND: ADENOCARCINOMA, Dose [Carcinogen]: 10 MG/RAT IN 1 ML STRIPPED CORN OIL, SINGLE DOSE ON D 50 FOLLOWING 24 HR FASTING PERIOD, Promoter: NONE USED
  tumour outcome (control, treated, inhibition, significance): 100%, 55%, 45%, not calculated
Carcinogen: 7,12-DIMETHYLBENZ(A)ANTHRACENE, 57-97-6, Dose [Inhibitor]: 2500 MG/KG IN DIET STARTING 1 WK AFTER CARCINOGEN AND CONTINUING FOR 30 WK (STUDY DURATION: 30 WK), Route [Inhibitor]: ORAL, Species: RAT, Strain/Sex: SPRAGUE-DAWLEY/FEMALE, Target Tissue: Type of Lesion: MAMMARY GLAND: TUMOR, Dose [Carcinogen]: 8 MG IN 1 ML SESAME OIL ADMINISTERED ONCE, Promoter: NONE USED
  tumour outcome (control, treated, inhibition, significance): 88%, 68%, 23%, not significant
Carcinogen: 7,12-DIMETHYLBENZ(A)ANTHRACENE, 57-97-6, Dose [Inhibitor]: 5000 MG/KG IN DIET STARTING 1 WK AFTER CARCINOGEN AND CONTINUING FOR 30 WK (STUDY DURATION: 30 WK), Route [Inhibitor]: ORAL, Species: RAT, Strain/Sex: SPRAGUE-DAWLEY/FEMALE, Target Tissue: Type of Lesion: MAMMARY GLAND: TUMOR, Dose [Carcinogen]: 8 MG IN 1 ML SESAME OIL ADMINISTERED ONCE, Promoter: NONE USED
  tumour outcome (control, treated, inhibition, significance): 88%, 72%, 18%, not significant
Carcinogen: 7,12-DIMETHYLBENZ(A)ANTHRACENE, 57-97-6, Dose [Inhibitor]: 5000 MG/KG IN DIET STARTING 2 WK BEFORE UNTIL 1 WK AFTER CARCINOGEN ADMINISTRATION (STUDY DURATION: 32 WK), Route [Inhibitor]: ORAL, Species: RAT, Strain/Sex: SPRAGUE-DAWLEY/FEMALE, Target Tissue: Type of Lesion: MAMMARY GLAND: TUMOR, Dose [Carcinogen]: 8 MG IN 1 ML SESAME OIL ADMINISTERED ONCE, Promoter: NONE USED
  tumour outcome (control, treated, inhibition, significance): 88%, 52%, 41%, p<0.01
Carcinogen: 7,12-DIMETHYLBENZ[A]ANTHRACENE, 57-97-6, Dose [Inhibitor]: 0, 200 MG/KG BW/D FOR 3 WK BEGINNING 2 WK PRIOR TO CARCINOGEN DOSE (STUDY DURATION: 24 WK), Route [Inhibitor]: INTRAPERITONEAL, Species: RAT, Strain/Sex: SPRAGUE-DAWLEY/FEMALE, Target Tissue: Type of Lesion: MAMMARY GLAND: TUMOR, Dose [Carcinogen]: 33.3 MG/KG BW IN 0.25 ML CORN OIL ONCE AT 50 D OF AGE, Promoter: NONE USED
  tumour outcome (control, treated, inhibition, significance): 91%, 56%, 38%, not calculated
Carcinogen: 7,12-DIMETHYLBENZ[A]ANTHRACENE, 57-97-6, Dose [Inhibitor]: 0.3% IN DIET, DAILY BEFORE, SIMULTANEOUS WITH, AND THROUGHOUT THE EXPERIMENT, HIGH POLYUNSATURATED FAT DIET (STUDY DURAT, Route [Inhibitor]: ORAL, Species: RAT, Strain/Sex: SPRAGUE-DAWLEY/FEMALE, Target Tissue: Type of Lesion: MAMMARY GLAND: PARENCHYMAL CARCINOMA, Dose [Carcinogen]: 10 MG IN 1 ML CORN OIL AT 50 D OF AGE ONCE, Promoter: NONE USED
  tumour outcome (control, treated, inhibition, significance): 30/30 (100%), 16/30 (53%), 47%, not calculated
Carcinogen: 7,12-DIMETHYLBENZ[A]ANTHRACENE, 57-97-6, Dose [Inhibitor]: 0.3% IN DIET, DAILY BEFORE, SIMULTANEOUS WITH, AND THROUGHOUT THE EXPERIMENT, HIGH SATURATED FAT DIET (STUDY DURATION: 3, Route [Inhibitor]: ORAL, Species: RAT, Strain/Sex: SPRAGUE-DAWLEY/FEMALE, Target Tissue: Type of Lesion: MAMMARY GLAND: PARENCHYMAL CARCINOMA, Dose [Carcinogen]: 10 MG IN 1 ML CORN OIL AT 50 D OF AGE ONCE, Promoter: NONE USED
  tumour outcome (control, treated, inhibition, significance): 23/30 (77%), 9/30 (30%), 60%, not calculated
Carcinogen: 7,12-DIMETHYLBENZ[A]ANTHRACENE, 57-97-6, Dose [Inhibitor]: 0.3% IN DIET, DAILY BEFORE, SIMULTANEOUS WITH, AND THROUGHOUT THE EXPERIMENT, LOW FAT DIET (STUDY DURATION: 32 WK), Route [Inhibitor]: ORAL, Species: RAT, Strain/Sex: SPRAGUE-DAWLEY/FEMALE, Target Tissue: Type of Lesion: MAMMARY GLAND: PARENCHYMAL CARCINOMA, Dose [Carcinogen]: 10 MG IN 1 ML CORN OIL AT 50 D OF AGE ONCE, Promoter: NONE USED
  tumour outcome (control, treated, inhibition, significance): 13/30 (43%), 10/30 (33%), 23%, not calculated
Carcinogen: 7,12-DIMETHYLBENZ[A]ANTHRACENE, 57-97-6, Dose [Inhibitor]: 0.3% IN HIGH POLYUNSATURATED FAT DIET DAILY STARTING 29 D BEFORE CARCINOGEN TREATMENT AND CONTINUING FOR THE DURATION OF, Route [Inhibitor]: ORAL, Species: RAT, Strain/Sex: SPRAGUE-DAWLEY/FEMALE, Target Tissue: Type of Lesion: MAMMARY GLAND: ADENOCARCINOMA, Dose [Carcinogen]: 10 MG IN 1 ML STRIPPED CORN OIL ONCE AT AGE 50 D, Promoter: NONE USED
  tumour outcome (control, treated, inhibition, significance): 100%, 55%, 45%, not calculated
Carcinogen: 7,12-DIMETHYLBENZ[A]ANTHRACENE, 57-97-6, Dose [Inhibitor]: 0.3% IN HIGH SATURATED FAT DIET DAILY STARTING 29 D BEFORE CARCINOGEN TREATMENT AND CONTINUING FOR THE DURATION OF THE S, Route [Inhibitor]: ORAL, Species: RAT, Strain/Sex: SPRAGUE-DAWLEY/FEMALE, Target Tissue: Type of Lesion: MAMMARY GLAND: ADENOCARCINOMA, Dose [Carcinogen]: 10 MG IN 1 ML STRIPPED CORN OIL ONCE AT AGE 50 D, Promoter: NONE USED
  tumour outcome (control, treated, inhibition, significance): 65%, 35%, 46%, not calculated
Carcinogen: 7,12-DIMETHYLBENZ[A]ANTHRACENE, 57-97-6, Dose [Inhibitor]: 0.3% IN LOW FAT DIET DAILY STARTING 29 D BEFORE CARCINOGEN TREATMENT AND CONTINUING FOR THE DURATION OF THE STUDY (STUDY, Route [Inhibitor]: ORAL, Species: RAT, Strain/Sex: SPRAGUE-DAWLEY/FEMALE, Target Tissue: Type of Lesion: MAMMARY GLAND: ADENOCARCINOMA, Dose [Carcinogen]: 10 MG IN 1 ML STRIPPED CORN OIL ONCE AT AGE 50 D, Promoter: NONE USED
  tumour outcome (control, treated, inhibition, significance): 35%, 25%, 29%, not calculated
Carcinogen: 7,12-DIMETHYLBENZ[A]ANTHRACENE, 57-97-6, Dose [Inhibitor]: 1 MG APPLIED ONCE 5 MIN BEFORE DMBA (STUDY DURATION 20 WK), Route [Inhibitor]: DERMAL, Species: MOUSE, Strain/Sex: CD-1/FEMALE, Target Tissue: Type of Lesion: SKIN: PAPILLOMA, Dose [Carcinogen]: 2.56 UG APPLIED ONCE 5 MIN AFTER INHIBITOR, Promoter: 12-O-TETRADECANOYLPHORBOL-13-ACETATE, 16561-29-8
  tumour outcome (control, treated, inhibition, significance): 80%, 58%, 28%, not calculated
